PubChem BioAssay AID1208 (EPA DSSTox, 2008)
Values joined by “and” are separate entries in the source; they are usually repeats but may differ in a detail not shown here. Identical values can stand only once. Active and inactive are the calls of the source.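 How the source made its calls: active means at least one rat sex group has a carcinogenic potency value and tumor site recorded; inconclusive means only rat studies were judged inadequate by the national testing program; inactive means no potency or tumor site, with negative rat experiments.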

What follows are molecules tested on rat chronic carcinogenicity bioassay, TD50 (assay: DSSTox (CPDBAS) Carcinogenic Potency Database Summary Rat Bioassay Results). Details: TD50_Rat_Note: TD50 is harmonic mean of more than one positive test; TargetSites_Rat_BothSexes: liver; stronger effect = lower value.
In short: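 The activity score maps log10(1/TD50_Rat_mmol) linearly onto 1–100; actives without a computed TD50, such as mixtures, receive 50. Source data are chronic rat carcinogenicity tests, using the most positive experiment for each sex.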

Structure (SMILES) | Potency [mg/kg/day]
CC(COc1ccc(C(C)(C)C)cc1)OS(=O)OCCCl (configuration not stated) | 96.7

Same assay, conditions: TD50_Rat_Note: TD50 is harmonic mean of more than one positive test; TargetSites_Rat_Female: adrenal gland; stronger effect = lower value

Structure (SMILES) | Potency [mg/kg/day]
COc1cc(S(C)=O)ccc1-c1nc2ccncc2[nH]1 (configuration not stated) | 70.5

Same assay, conditions: TD50_Rat_Note: TD50 is harmonic mean of more than one positive test; TargetSites_Rat_Female: adrenal gland; mammary gland; nasal cavity; oral cavity; stomach; stronger effect = lower value

Structure (SMILES) | Potency [mg/kg/day]
ClCC(Br)CBr (configuration not stated) | 0.259

Same assay, conditions: TD50_Rat_Note: TD50 is harmonic mean of more than one positive test; TargetSites_Rat_Female: clitoral gland; mammary gland; nervous system; oral cavity; thyroid gland; uterus; stronger effect = lower value

Structure (SMILES) | Potency [mg/kg/day]
C=CC(N)=O | 3.75

Same assay, conditions: TD50_Rat_Note: TD50 is harmonic mean of more than one positive test; TargetSites_Rat_Female: ear Zymbals gland; liver; vascular system; stronger effect = lower value

Structure (SMILES) | Potency [mg/kg/day]
C=CF | 20

Same assay, conditions: TD50_Rat_Note: TD50 is harmonic mean of more than one positive test; TargetSites_Rat_Female: kidney; large intestine; liver; urinary bladder; stronger effect = lower value

Structure (SMILES) | Potency [mg/kg/day]
Nc1c(Br)cc(Br)c2c1C(=O)c1ccccc1C2=O | 46

Same assay, conditions: TD50_Rat_Note: TD50 is harmonic mean of more than one positive test; TargetSites_Rat_Female: kidney; urinary bladder; stronger effect = lower value

Structure (SMILES) | Potency
O=C(O)CN(CC(=O)O)CC(=O)O | 1770 mg/kg/day and 370 mg/kg/day

Same assay, conditions: TD50_Rat_Note: TD50 is harmonic mean of more than one positive test; TargetSites_Rat_Female: liver; stronger effect = lower value

Structure (SMILES) | Potency [mg/kg/day]
Oc1ccc2ccccc2c1N=Nc1ccccc1 | 29.4
CN(C)c1ccc(C(=O)c2ccc(N(C)C)cc2)cc1 | 5.64
CC(=O)O[C@H]1CC[C@@]2(C)C(=CC[C@@H]3[C@@H]2CC[C@]2(C)C(=O)CC[C@@H]32)C1 | 49.6

Same assay, conditions: TD50_Rat_Note: TD50 is harmonic mean of more than one positive test; TargetSites_Rat_Female: mammary gland; stronger effect = lower value

Structure (SMILES) | Potency [mg/kg/day]
C=C(Cl)CSC(=S)N(CC)CC | 26.1

Same assay, conditions: TD50_Rat_Note: TD50 is harmonic mean of more than one positive test; TargetSites_Rat_Female: mammary gland; skin; stronger effect = lower value

Structure (SMILES) | Potency [mg/kg/day]
CCN(Cc1cccc(S(=O)(=O)[O-])c1)c1ccc(C(=C2C=CC(=[N+](C)C)C=C2)c2ccc(N(CC)Cc3cccc(S(=O)(=O)O)c3)cc2)cc1 | 612

Same assay, conditions: TD50_Rat_Note: TD50 is harmonic mean of more than one positive test; TargetSites_Rat_Female: nasal cavity; stronger effect = lower value

Structure (SMILES) | Potency [mg/kg/day]
CCN(C#N)N=O | 3.68

Same assay, conditions: TD50_Rat_Note: TD50 is harmonic mean of more than one positive test; TargetSites_Rat_Female: stomach; stronger effect = lower value

Structure (SMILES) | Potency [mg/kg/day]
NC(N)=Nc1nc(CSCCNc2nsnc2N)cs1 | 4990
CC1(C)COC1=O | 211
O=C(O)/C=C/c1ccc(O)c(O)c1 | 297
Cl/C=C/CCl | 94

Same assay, conditions: TD50_Rat_Note: TD50 is harmonic mean of more than one positive test; TargetSites_Rat_Female: thyroid gland; stronger effect = lower value

Structure (SMILES) | Potency [mg/kg/day]
O=C/C=C/O | 122

Same assay, conditions: TD50_Rat_Note: TD50 is harmonic mean of more than one positive test; greater than ten-fold variation among TD50 values for positive res; TargetSites_Rat_Female: nervous system; stomach; stronger effect = lower value

Structure (SMILES) | Potency [mg/kg/day]
C1CO1 | 21.3

Same assay, conditions: TD50_Rat_Note: TD50 is harmonic mean of more than one positive test; harmonic mean of TD50 includes a value for upper 99% confidence li; TargetSites_Rat_Female: stomach; stronger effect = lower value

Structure (SMILES) | Potency [mg/kg/day]
Oc1ccccc1O | 71.5

Same assay, conditions: TD50_Rat_Note: TD50 is harmonic mean of more than one positive test; stronger effect = lower value

Structure (SMILES) | Potency [mg/kg/day]
Cc1cccc(N=Nc2ccc(N(C)C)cc2)c1 | 3.28

Same assay, conditions: TD50_Rat_Note: no positive results

Structure (SMILES) | outcome
CCN(C=O)CC | inactive; no positive results
CN(C)C(=O)COC(=O)Cc1ccc(OC(=O)c2ccc(N=C(N)N)cc2)cc1 | inactive; no positive results
Nc1cccc(N)c1 | inactive; no positive results
S=C=NCCCCCCc1ccccc1 | inactive; no positive results
O=C1OC(C(O)CO)C(O)=C1O (configuration not stated) | inactive; no positive results
CCCC[N+](=O)[O-] | inactive; no positive results
COc1cc(OC)c2c3c(c(=O)oc2c1)C(=O)CC3 | inactive; no positive results
O=S(=O)([O-])[O-].[O]=[V+2] | inactive; no positive results
C=CC(=O)c1ccc2c(c1)OCO2 | inactive; no positive results
CN(N=O)C(=O)c1ccccc1C(=O)N(C)N=O | inactive; no positive results

Same assay, conditions: TD50_Rat_Note: no positive results; TargetSites_Rat_Female: no positive results

Structure (SMILES) | outcome
CN1CCCC1=O | inactive; no positive results
P | inactive; no positive results
ClC1=C(Cl)[C@]2(Cl)[C@@H]3[C@@H]4C[C@@H]([C@H]5O[C@@H]45)[C@@H]3[C@@]1(Cl)C2(Cl)Cl | inactive; no positive results
CCCCCCCCCCCCC(=O)COC1=C(O)C(=O)O[C@@H]1[C@@H](O)CO | inactive
CN(C)[C@@H]1C(=O)C(C(N)=O)=C(O)[C@@]2(O)C(=O)C3=C(O)c4c(O)cccc4[C@@](C)(O)[C@H]3[C@H](O)[C@@H]12 | inactive; no positive results
ClC(Cl)C(Cl)(Cl)Cl | inactive; no positive results
CC1=NN(c2ccccc2)C(=O)C1 | inactive; no positive results
CC(=O)CN(N=O)C(N)=O | inactive; no positive results
Cc1noc(NS(=O)(=O)c2ccc(N)cc2)c1C | inactive; no positive results
C=CCOC(=O)c1ccccc1C(=O)OCC=C | inactive; no positive results
ClC1C(Cl)C(Cl)C(Cl)C(Cl)C1Cl (configuration not stated) | inactive; no positive results
COC(=O)C1=C(C)NC(C)=C(C(=O)OCC(C)(C)CN(C)Cc2ccccc2)C1c1cc([N+](=O)[O-])ccc1F (configuration not stated) | inactive; no positive results
O=C1C=C2C(=CCOC2O)O1 (configuration not stated) | inactive
FC(F)(Cl)C(F)(Cl)Cl | inactive; no positive results
C1N2CN3CN1CN(C2)C3 | inactive; no positive results
O=[N+]([O-])c1c(Cl)c(Cl)c(Cl)c(Cl)c1Cl | inactive; no positive results
Cc1c(C)c2c(c(C)c1O)CCC(C)(CCCC(C)CCCC(C)CCCC(C)C)O2 (configuration not stated) | inactive; no positive results
F | inactive; no positive results
Nc1ccc(Cl)cc1 | inactive; no positive results
C=CC | inactive; no positive results
Nc1ccc([N+](=O)[O-])cc1N | inactive; no positive results
CCC(=O)C(CC(C)N(C)C)(c1ccccc1)c1ccccc1 (configuration not stated) | inactive; no positive results
CCCCC(CC)CO (configuration not stated) | inactive; no positive results
O=S(=O)(O)c1ccc(N=Nc2cc(S(=O)(=O)O)c3ccccc3c2O)c2ccccc12 | inactive; no positive results
CCOc1ccc(NC(C)=O)cc1[N+](=O)[O-] | inactive; no positive results

Structure (SMILES) | outcome
CCOC(=O)[C@H](CCc1ccccc1)N[C@@H](C)C(=O)N1Cc2ccccc2C[C@H]1C(=O)O | inactive; no positive results
CCOc1ccc2c(c1)C(C)=CC(C)(C)N2 | inactive; no positive results
O=C/C=C/c1ccccc1 | inactive; no positive results
CCCCCCCCCCC(C)c1ccc(S(=O)(=O)O)cc1 (configuration not stated) | inactive; no positive results
CCOC(=O)C1OC1(C)c1ccccc1 (configuration not stated) | inactive; no positive results
Clc1nc(Cl)nc(Nc2ccccc2Cl)n1 | inactive; no positive results
O=C(N[C@H](CO)[C@H](O)c1ccc([N+](=O)[O-])cc1)C(Cl)Cl | inactive
CCC[N+](=O)[O-] | inactive; no positive results
Nc1ccc(Nc2ccccc2)cc1 | inactive; no positive results
C=C(C)[C@H]1Cc2c(ccc3c2O[C@@H]2COc4cc(OC)c(OC)cc4[C@@H]2C3=O)O1 | inactive; no positive results
NC(N)=NC(N)=NCCc1ccccc1 | inactive; no positive results
C1CC2OC2CC1C1CO1 (configuration not stated) | inactive
ClC(Br)Br | inactive; no positive results
CN[C@H]1CC[C@@H](c2ccc(Cl)c(Cl)c2)c2ccccc21 | inactive
CC(=O)Nc1cccc2c1-c1ccccc1C2 | inactive
CCCCCCCCCCCC[N+](C)(C)[O-] | inactive; no positive results
CNCCC(Oc1ccc(C(F)(F)F)cc1)c1ccccc1 (configuration not stated) | inactive; no positive results
ClC(Cl)=C(c1ccc(Cl)cc1)c1ccc(Cl)cc1 | inactive; no positive results
Cc1cccc2cccnc12 | inactive; no positive results
CC(O)COC(C)(C)C (configuration not stated) | inactive; no positive results
c1ccc2n[nH]nc2c1 | inactive; no positive results
C=C(C)C(=O)OC | inactive; no positive results
CC(Oc1c(Cl)cccc1Cl)C1=NCCN1 (configuration not stated) | inactive; no positive results
C[C@H](CCC(=O)O)[C@H]1CC[C@H]2[C@@H]3CC[C@@H]4C[C@H](O)CC[C@]4(C)[C@H]3CC[C@]12C | inactive; no positive results

Same assay, conditions: TD50_Rat_Note: no positive results; TargetSites_Rat_Female: no positive results; stronger effect = lower value

Structure (SMILES) | Potency [mg/kg/day]
Cl/C=C/CCl | 100

Same assay, conditions: TD50_Rat_Note: positive test results only by intraperitoneal or intravenous injection; TD50 is harmonic mean of more than one positive; TargetSites_Rat_Female: mammary gland; peritoneal cavity; stronger effect = lower value

Structure (SMILES) | Potency [mg/kg/day]
COc1cc2c(c3c1c(=O)c1ccccc1n3C)C=CC(C)(C)O2 | 0.505

Same assay, conditions: TD50_Rat_Note: positive test results only by intraperitoneal or intravenous injection; stronger effect = lower value

Structure (SMILES) | Potency [mg/kg/day]
C/C=C1/C[C@@H](C)[C@@](C)(O)C(=O)OC/C2=C/CN(C)CC[C@@H](OC1=O)C2=O | 1.7

Same assay, conditions: TargetSites_Rat_BothSexes: liver; stronger effect = lower value

Structure (SMILES) | Potency [mg/kg/day]
CCOc1ccc(NC(N)=O)cc1 | 537

Same assay, conditions: TargetSites_Rat_Female: clitoral gland; stronger effect = lower value

Structure (SMILES) | Potency [mg/kg/day]
Cc1ccc([N+](=O)[O-])cc1 | 257

Same assay, conditions: TargetSites_Rat_Female: clitoral gland; uterus; stronger effect = lower value

Structure (SMILES) | Potency [mg/kg/day]
Nc1cccc2c(N)cccc12 | 69.6

Same assay, conditions: TargetSites_Rat_Female: ear Zymbals gland; liver; mammary gland; stronger effect = lower value

Structure (SMILES) | Potency [mg/kg/day]
CC(=O)Nc1ccc2c(c1)C(=O)c1ccccc1-2 | 6.17

Same assay, conditions: TargetSites_Rat_Female: ear Zymbals gland; mammary gland; stronger effect = lower value

Structure (SMILES) | Potency [mg/kg/day]
CC(=O)N(C(C)=O)c1cccc2c1Cc1ccccc1-2 | 19

Same assay, conditions: TargetSites_Rat_Female: no positive results; stronger effect = lower value

Structure (SMILES) | Potency [mg/kg/day]
Nc1cc([N+](=O)[O-])ccc1O | 839
Nc1ccc(Cl)cc1 | 7.62
Clc1ccccc1 | 247
CCC1CO1 (configuration not stated) | 220
CN(C)c1ccccc1 | 125
OC(Cn1cncn1)(Cn1cncn1)c1ccc(F)cc1F | 80.7
CC1=CC(=O)CC(C)(C)C1 | 1210

Same assay, conditions: stronger effect = lower value

Structure (SMILES) | Potency [mg/kg/day]
ClC1C(Cl)C(Cl)C(Cl)C(Cl)C1Cl (configuration not stated) | 11.2
C/C=C1/C[C@@H](C)[C@](O)(CO)C(=O)OCC2=CCN3CC[C@@H](OC1=O)[C@@H]23 | 0.862
